# Measured values taken from patent publication US6737383B1, “Herbicidal oxadiazolidines” (priority 1999, dated 2004).
# Columns and labels:
# corn = test: Test C postemergence corn; assay type: in vivo, Zea mays; conditions: 0 to 100 scale, 0 no effect, 100 complete control
# Experimental: (§1) Compounds evaluated in this test were formulated in a non-phytotoxic solvent mixture which included a surfactant and applied to plants that were grown for various periods of time before treatment (postemergence application). A mixture of sandy loam soil and greenhouse potting mix in a 60:40 ratio was used for the postemergence test.
# Plantings of these crops and weed species were adjusted to produce plants of appropriate size for the postemergence test. All plant species were grown using normal greenhouse practices. Crop and weed species include arrowleaf sida (Sida rhombifolia), barnyardgrass (Echinochloa crus-galli), cocklebur (Xanthium strumarium), common ragweed (Ambrosia elatior), corn (Zea mays), cotton (Gossypium hirsutum), eastern black nightshade (Solanum ptycanthum), fall panicum (Panicum dichotomiflorum), field bindweed (Convolvulus arvensis), giant foxtail (Setaria faberii), hairy beggarticks (Bidens pilosa), ivyleaf morningglory (Ipomoea hederacea), johnsongrass (Sorghum halepense), ladysthumb smartweed (Polygonum persicaria), lambsquarters (Chenopodium album), large crabgrass (Digitaria sanguinalis), purple nutsedge (Cyperus rotundus), redroot pigweed (Amaranthus retroflexus), soybean (Glycine max), surinam grass (Brachiaria decumbens), velvetleaf (Abutilon theophrasti) and wild poinsettia (Euphorbia heterophylla).
# Treated plants and untreated controls were maintained in a greenhouse for approximately 14, to 21 days, after which all treated plants were compared to untreated controls and visually evaluated. Plant response ratings, summarized in Table C, were based upon a 0 to 100 scale where 0 was no effect and 100 was complete control. A dash response (−) means no test result.
# ivyleaf morningglory = test: Test C postemergence ivyleaf morningglory; assay type: in vivo, Ipomoea hederacea; conditions: 0 to 100 scale, 0 no effect, 100 complete control
# How it was run: (§2)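 Visual injury scored 0-100 (100 = complete control) versus untreated plants roughly 14 to 21 days after treatment. Plants were grown to suitable size in 60:40 sandy loam and potting mix, then treated postemergence with surfactant-containing solvent formulations.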
# surinam grass [1] = test: Test C postemergence surinam grass; assay type: in vivo, Brachiaria decumbens; conditions: 0 to 100 scale, 0 no effect, 100 complete control
# How it was run: as §2
# wild poinsettia = test: Test C postemergence wild poinsettia; assay type: in vivo, Euphorbia heterophylla; conditions: 0 to 100 scale, 0 no effect, 100 complete control
# How it was run: as §2
# deadnettle = test: Test E deadnettle; assay type: in vivo, Lamium amplexicaule; conditions: Postemergence; for Plant response rating, Deadnettle: 0 to 100 scale; for Deadnettle plant response rating: Rate 250 g/ha, 0 to 100 scale where 0 is no effect and 100 is complete control
# Experimental: as §1, with “in the 1- to 4-leaf stage” for “grown for various periods of time before treatment”
# (§3) Plantings of these crops and weed species were adjusted to produce plants of appropriate size for the postemergence test. All plant species were grown using normal greenhouse practices. Crop and weed species include annual bluegrass (Poa annua), blackgrass (Alopecurus myosuroides), black nightshade (Solanum nigra), chickweed (Stellaria media), common poppy (Papaver rhoeas), deadnettle (Lamium amplexicaule), downy brome (Bromus tectorum), field violet (Viola arvensis), galium (Galium aparine), green foxtail (Setaria viridis), Italian ryegrass (Lolium multiflorum), jointed goatgrass (Aegilops cylindrica), kochia (Kochia scoparia), lambsquarters (Chenopodium album), littleseed canarygrass (Phalaris minor), rape (Brassica napus), redroot pigweed (Amaranthus retroflexus), Russian thistle (Salsola kali), scentless chamomile (Matricaria inodora), spring barley (Hordeum vulgare), sugar beet (Beta vulgaris), sunflower (Helianthus annuus), ivyleaf speedwell (Veronica hederaefolia), spring wheat (Triticum aestivum), winter wheat (Triticum aestivum), wild buckwheat (Polygonum convolvulus), wild mustard (Sinapis arvensis), wild oat (Avena fatua), windgrass (Apera spica-venti) and winter barley (Hordeum vulgare).
# (§4) Treated plants and untreated controls were maintained in a greenhouse for approximately 21 to 28 days, after which all treated plants were compared to untreated controls and visually evaluated. […] A dash response (-) means no test result.
# redroot pigweed [2] = test: Test E redroot pigweed; assay type: in vivo, Amaranthus retroflexus; conditions: Postemergence; for Plant response rating, Redroot pigweed: 0 to 100 scale; for Redroot pigweed plant response rating: Rate 250 g/ha, 0 to 100 scale where 0 is no effect and 100 is complete control
# Experimental: as §1, with “in the 1- to 4-leaf stage” for “grown for various periods of time before treatment”
# as §3, §4
# scentless chamomile = test: Test E scentless chamomile; assay type: in vivo, Matricaria inodora; conditions: Postemergence; for Plant response rating, Scentless chamo: 0 to 100 scale; for Scentless chamo plant response rating: Rate 250 g/ha, 0 to 100 scale where 0 is no effect and 100 is complete control
# Experimental: as §1, with “in the 1- to 4-leaf stage” for “grown for various periods of time before treatment”
# as §3, §4
# wild mustard = test: Test E wild mustard; assay type: in vivo, Sinapis arvensis; conditions: Postemergence; for Plant response rating, Wild mustard: 0 to 100 scale; for Wild mustard plant response rating: Rate 250 g/ha, 0 to 100 scale where 0 is no effect and 100 is complete control
# How it was run: (§5)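 Greenhouse test: for postemergence, foliar application at 1- to 4-leaf stage; compound in non-phytotoxic solvent with surfactant. Rating is visual, relative to untreated controls, about 21 to 28 days after treatment.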
# wild oat = test: Test E wild oat; assay type: in vivo, Avena fatua; conditions: Postemergence; for Plant response rating, Wild oat: 0 to 100 scale
# How it was run: as §5
# downy brome = test: Test E downy brome; assay type: in vivo, Bromus tectorum; conditions: Preemergence; for Downy brome plant response rating (0 to 100 scale): Rate 250 g/ha
# rape = test: Test E rape; assay type: in vivo, Brassica napus; conditions: Preemergence; for Rape plant response rating (0 to 100 scale): Rate 250 g/ha
# redroot pigweed [3] = test: Test E redroot pigweed; assay type: in vivo, Amaranthus retroflexus; conditions: Preemergence; for Redroot pigweed plant response rating (0 to 100 scale): Rate 250 g/ha
# sugar beet = test: Test E sugar beet; assay type: in vivo, Beta vulgaris; conditions: Preemergence; for Sugar beet plant response rating (0 to 100 scale): Rate 250 g/ha
# Johnson grass = test: Test D Johnson grass; assay type: in vivo, Sorghum halepense; conditions: Postemergence, 0 to 100 scale
# surinam grass [4] = test: Test D surinam grass; assay type: in vivo, Brachiaria decumbens; conditions: Postemergence, 0 to 100 scale
# Green foxtail [5] = test: Test D green foxtail; assay type: in vivo; conditions: Postemergence, 0 to 100 scale, 0 no injury, 100 complete control
# Green foxtail [6] = test: Test D green foxtail; assay type: in vivo; conditions: Rate 250 g/ha; Postemergence; 0 to 100 scale
# [7] = Rate 125 g/ha, 0 to 100 scale (0 no effect, 100 complete control)
# [8] = Rate 125 g/ha, 0 is no effect, 100 is complete control
# [9] = Rate 500 g/ha, 0 is no effect, 100 is complete control
# [10] = Rate 16 g/ha, 0 no injury, 100 complete control
# [11] = Rate 32 g/ha, 0 no injury, 100 complete control
# [12] = Rate 64 g/ha, 0 no injury, 100 complete control
# [13] = Rate 125 g/ha, 0 no injury, 100 complete control
# [14] = Rate 500 g/ha, 0 to 100 scale where 0 is no effect and 100 is complete control
smiles,measurement,setting,value
CC(C)N(C(=O)n1oc(=O)n(C)c1=O)c1ccc(F)cc1 [Compound 138],"Plant response rating, Corn",corn; Rate 280 g/ha,20
same,"Plant response rating, Corn",corn; Rate 560 g/ha,50
same,"Plant response rating, Corn",corn; Rate 1120 g/ha,60
same,Plant response rating I. morningglory,ivyleaf morningglory; Rate 140 g/ha,0
same,Plant response rating I. morningglory,ivyleaf morningglory; Rate 280 g/ha,0
same,Plant response rating I. morningglory,ivyleaf morningglory; Rate 560 g/ha,0
same,Plant response rating I. morningglory,ivyleaf morningglory; Rate 1120 g/ha,0
same,"Plant response rating, Surinam grass",surinam grass [1]; Rate 140 g/ha,10
same,"Plant response rating, Surinam grass",surinam grass [1]; Rate 280 g/ha,40
same,"Plant response rating, Surinam grass",surinam grass [1]; Rate 560 g/ha,85
same,"Plant response rating, Surinam grass",surinam grass [1]; Rate 1120 g/ha,90
same,Plant response rating Wild poinsettia,wild poinsettia; Rate 140 g/ha,0
same,Plant response rating Wild poinsettia,wild poinsettia; Rate 280 g/ha,0
same,Plant response rating Wild poinsettia,wild poinsettia; Rate 560 g/ha,0
same,Plant response rating Wild poinsettia,wild poinsettia; Rate 1120 g/ha,70
same,"Plant response rating, Deadnettle",deadnettle; Rate 125 g/ha,0
same,Deadnettle plant response rating,deadnettle,50
same,"Plant response rating, Redroot pigweed",redroot pigweed [2]; Rate 125 g/ha,20
same,Redroot pigweed plant response rating,redroot pigweed [2],10
same,"Plant response rating, Scentless chamo",scentless chamomile; Rate 125 g/ha,20
same,Scentless chamo plant response rating,scentless chamomile,0
same,"Plant response rating, Wild mustard",wild mustard; Rate 125 g/ha,0
same,Wild mustard plant response rating,wild mustard,0
same,"Plant response rating, Wild oat",wild oat; Rate 125 g/ha,0
same,Wild oat plant response rating,"wild oat; Rate 250 g/ha, 0 to 100 scale where 0 is no effect and 100 is complete control",0
same,"Plant response rating, Downy brome",downy brome; [7],90
same,Downy brome plant response rating (0 to 100 scale),downy brome,90
same,"Plant response rating, Rape",rape; [7],30
same,Rape plant response rating (0 to 100 scale),rape,95
same,"Plant response rating, Redroot pigweed",redroot pigweed [3]; [7],90
same,Redroot pigweed plant response rating (0 to 100 scale),redroot pigweed [3],90
same,"Plant response rating, Sugar beet",sugar beet; [7],0
same,Sugar beet plant response rating (0 to 100 scale),sugar beet,50
CC(C)N(C(=O)n1oc(=O)n(C2CC2)c1=O)c1ccc(F)cc1 [Compound 242],"Plant response rating, Corn",corn; Rate 140 g/ha,0
same,"Plant response rating, Corn",corn; Rate 280 g/ha,0
same,"Plant response rating, Corn",corn; Rate 560 g/ha,0
same,"Plant response rating, Corn",corn; Rate 1120 g/ha,20
same,Plant response rating I. morningglory,ivyleaf morningglory; Rate 140 g/ha,0
same,Plant response rating I. morningglory,ivyleaf morningglory; Rate 280 g/ha,0
same,Plant response rating I. morningglory,ivyleaf morningglory; Rate 560 g/ha,0
same,Plant response rating I. morningglory,ivyleaf morningglory; Rate 1120 g/ha,0
same,"Plant response rating, Surinam grass",surinam grass [1]; Rate 140 g/ha,0
same,"Plant response rating, Surinam grass",surinam grass [1]; Rate 280 g/ha,40
same,"Plant response rating, Surinam grass",surinam grass [1]; Rate 560 g/ha,85
same,"Plant response rating, Surinam grass",surinam grass [1]; Rate 1120 g/ha,90
same,Plant response rating Wild poinsettia,wild poinsettia; Rate 140 g/ha,0
same,Plant response rating Wild poinsettia,wild poinsettia; Rate 280 g/ha,0
same,Plant response rating Wild poinsettia,wild poinsettia; Rate 560 g/ha,0
same,Plant response rating Wild poinsettia,wild poinsettia; Rate 1120 g/ha,85
same,"Plant response rating, Deadnettle",deadnettle; Rate 62 g/ha,100
same,"Plant response rating, Deadnettle",deadnettle; [8],10
same,Deadnettle plant response rating,deadnettle,10
same,"Plant response rating, Deadnettle",deadnettle; [9],50
same,"Plant response rating, Redroot pigweed",redroot pigweed [2]; Rate 62 g/ha,0
same,"Plant response rating, Redroot pigweed",redroot pigweed [2]; [8],0
same,Redroot pigweed plant response rating,redroot pigweed [2],0
same,"Plant response rating, Redroot pigweed",redroot pigweed [2]; [9],40
same,"Plant response rating, Scentless chamo",scentless chamomile; Rate 62 g/ha,55
same,"Plant response rating, Scentless chamo",scentless chamomile; [8],40
same,Scentless chamo plant response rating,scentless chamomile,0
same,"Plant response rating, Scentless chamo",scentless chamomile; [9],20
same,"Plant response rating, Wild mustard",wild mustard; Rate 62 g/ha,0
same,"Plant response rating, Wild mustard",wild mustard; [8],20
same,Wild mustard plant response rating,wild mustard,20
same,"Plant response rating, Wild mustard",wild mustard; [9],5
same,"Plant response rating, Wild oat",wild oat; [8],0
same,"Plant response rating, Wild oat",wild oat; [9],20
same,"Plant response rating, Johnsongrass",Johnson grass; [10],0
same,"Plant response rating, Johnsongrass",Johnson grass; [11],0
same,"Plant response rating, Johnsongrass",Johnson grass; [12],40
same,"Plant response rating, Johnsongrass",Johnson grass; [13],30
same,"Plant response rating, Johnsongrass",Johnson grass; Rate 250 g/ha,90
same,"Plant response rating, Surinam grass",surinam grass [4]; [10],0
same,"Plant response rating, Surinam grass",surinam grass [4]; [11],30
same,Surinam grass plant response rating,surinam grass [4]; [12],100
same,Surinam grass plant response rating,surinam grass [4]; [13],100
same,"Plant response rating, Surinam grass",surinam grass [4]; Rate 250 g/ha,100
same,"Plant response rating, Downy brome",downy brome; [7],70
same,Downy brome plant response rating (0 to 100 scale),downy brome,100
same,"Plant response rating, Downy brome",downy brome; [14],100
same,"Plant response rating, Rape",rape; [7],50
same,Rape plant response rating (0 to 100 scale),rape,60
same,"Plant response rating, Rape",rape; [14],85
same,"Plant response rating, Redroot pigweed",redroot pigweed [3]; [7],90
same,Redroot pigweed plant response rating (0 to 100 scale),redroot pigweed [3],100
same,"Plant response rating, Redroot pigweed",redroot pigweed [3]; [14],100
same,"Plant response rating, Sugar beet",sugar beet; [7],30
same,Sugar beet plant response rating (0 to 100 scale),sugar beet,50
same,"Plant response rating, Sugar beet",sugar beet; [14],65
same,"Plant response rating, Green foxtail",Green foxtail [5]; Rate 64 g/ha,100
same,"Plant response rating, Green foxtail",Green foxtail [5]; Rate 125 g/ha,100
same,"Plant response rating, Green foxtail",Green foxtail [6],100
CC(C)N(C(=O)n1oc(=O)n(C2CCCCCC2)c1=O)c1ccc(F)cc1F [Compound 342],"Plant response rating, Johnsongrass",Johnson grass; [10],0
same,"Plant response rating, Johnsongrass",Johnson grass; [11],0
same,"Plant response rating, Johnsongrass",Johnson grass; [12],0
same,"Plant response rating, Johnsongrass",Johnson grass; [13],0
same,"Plant response rating, Johnsongrass",Johnson grass; Rate 250 g/ha,0
same,"Plant response rating, Surinam grass",surinam grass [4]; [10],0
same,"Plant response rating, Surinam grass",surinam grass [4]; [11],0
same,Surinam grass plant response rating,surinam grass [4]; [12],20
same,Surinam grass plant response rating,surinam grass [4]; [13],30
same,"Plant response rating, Surinam grass",surinam grass [4]; Rate 250 g/ha,40
same,"Plant response rating, Green foxtail",Green foxtail [5]; Rate 64 g/ha,0
same,"Plant response rating, Green foxtail",Green foxtail [5]; Rate 125 g/ha,60
same,"Plant response rating, Green foxtail",Green foxtail [6],100
